Measurements as given in PMC9967645, “OAT3 Participates in Drug–Drug Interaction between Bentysrepinine and Entecavir through Interactions with M8—A Metabolite of Bentysrepinine—In Rats and Humans In Vitro” (Molecules, 2023).
Like-named read-outs stand apart in the source and are kept apart here.

Columns and labels:
hOAT3 = target: T1, hOAT3 (Homo sapiens, UniProt Q8TCC7); assay: In vitro uptake assay in hOAT3-HEK293 cells; conditions: M8 10 µM; for inhibition of the uptake of ETV in hOAT3-HEK293 cells / substrate of hOAT3 (uptake in hOAT3-HEK293 vs mock-HEK293 cells): Y101 2.0 µM; for substrate of hOAT3 (uptake in hOAT3-HEK293 vs mock-HEK293 cells): ES 10 µM
T1 sequence (Q8TCC7 1-542): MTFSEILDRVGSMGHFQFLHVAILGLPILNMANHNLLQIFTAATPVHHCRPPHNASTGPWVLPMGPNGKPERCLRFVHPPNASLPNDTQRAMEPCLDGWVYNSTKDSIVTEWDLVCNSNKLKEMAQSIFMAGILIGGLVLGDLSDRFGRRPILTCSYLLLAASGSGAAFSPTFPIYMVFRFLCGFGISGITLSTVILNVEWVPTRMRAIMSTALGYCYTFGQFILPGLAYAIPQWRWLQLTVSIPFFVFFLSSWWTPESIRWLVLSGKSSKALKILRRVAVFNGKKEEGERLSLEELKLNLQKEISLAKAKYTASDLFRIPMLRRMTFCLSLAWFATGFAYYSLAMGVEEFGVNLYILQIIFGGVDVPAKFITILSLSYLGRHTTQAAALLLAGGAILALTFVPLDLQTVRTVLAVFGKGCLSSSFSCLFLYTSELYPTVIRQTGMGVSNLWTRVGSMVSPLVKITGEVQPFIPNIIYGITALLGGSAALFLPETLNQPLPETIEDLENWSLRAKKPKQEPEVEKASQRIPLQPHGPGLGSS
Protocol: The hOAT1-HEK293, hOAT3-HEK293 and mock cells were cultured in Dulbecco modified Eagle medium (DMEM) containing 10% fetal bovine serum (FBS) and 1% penicillin/streptomycin in an atmosphere of 5% CO2 air at 37 °C. The HEK293 cells were plated on 24-well plates at a density of 5 × 10^5 cells/well. […] Uptake assay was initiated by adding 1 mL of the transporter buffer containing Y101, M8, ETV or probe substrate. Following incubation with gentle shaking, the uptake was terminated at designated time by removing the transporter buffer and washing cells three times with 1 mL of ice-cold HBSS. Next, substrates of Y101, M8, ETV, PAH and ES in cell monolayer were released by lysing the cells with 0.3 mL of 0.1% Triton X-100 for 2 h and determined by liquid chromatography–tandem mass spectrometry (LC–MS/MS). In the time-course uptake assay, Y101 (2.0 µM) and M8 (10 µM) in the presence or absence of PRO (100 µM) were measured in hOAT1-HEK293, hOAT3-HEK293 and mock cells. The concentration-dependent uptake of M8 was determined in hOAT3-HEK293 cells, and incubation time (5 min) was optimized. The uptake of M8 (10 µM) with or without ETV was examined in hOAT3-HEK293 cells. The uptake of ETV (10 µM) with or without Y101 or M8 was also measured in hOAT1-HEK293 and hOAT3-HEK293 cells, respectively. Furthermore, PAH and ES at concentrations of 10 µM were used as positive control in hOAT1-HEK293 and hOAT3-HEK293 cells, respectively. Protein concentrations were measured by the bicinchoninic acid procedure (Solarbio, Beijing, China) using bovine serum albumin as the standard.
Biological samples were prepared as previously described. Aliquots (50 µL) of urine, plasma, kidney homogenates, or cell lysates were individually mixed with 150 µL methanol and 50 µL working solution of internal standard (acetaminophen or bestatin), followed by vortexing for 1 min and centrifuging at 13,800 g for 10 min. […] The resulting supernatant (1 µL) was subjected to LC-MS/MS for the assessment of Y101, M8, M9 and ETV, respectively. […] The concentrations of ETV, Y101, M8 and M9 were determined by an AB QTRAP 5500 LC–MS/MS System (Foster City, CA, USA) as previously described. Chromatographic separation was achieved on an Infinitylab Poroshell 120 EC-C18 (50 mm × 2.1 mm, 2.7 µm, Agilent Technology Inc., CA, USA) at 40 °C. The mobile phase consisted of formic acid-acetonitrile (0.05:100, v/v) and a mixture of 1 mmol-ammonium acetate-acetonitrile-formic acid (95:5:0.05, v/v/v) at a flow rate of 0.3 mL/min. […] Analyst1.5.2 software was used for data processing and analysis.

[1] = Pharmacokinetic DDI study in rats, intravenous Y101 and/or ETV; format: in vivo, Sprague–Dawley (SD) rats; conditions: Sprague-Dawley, rat, plasma; for AUC(0-inf) / AUC(0-t) / C0 / Vd / half-life / Cmax / Tmax: n = 4; for clearance: n = 4, read-out: CLp (plasma clearance) (converted)
Protocol: Additionally, DDI between Y101 and ETV was investigated by monitoring time-course plasma Y101 in rats with surgery as described above. Animals were randomly placed into three groups (n = 4): (1) Y101 alone (25 mg/kg for intravenous treatment and 60 mg/kg for oral administration); (2) ETV (0.06 mg/kg); and (3) Y101 (25 mg/kg for intravenous treatment and 60 mg/kg for oral administration) + ETV (0.06 mg/kg). ETV was dissolved in saline at concentration of 12 µg/mL. Rats received an oral or intravenous dose of Y101 and/or ETV at volume of 5 mL/kg. The doses used in in vivo pharmacokinetic studies were selected in accordance with therapeutic doses of Y101 and ETV commonly used clinically and in previous studies.
Following administration, serial blood samples were collected through jugular vein pre-dose (0 h) and post-dose at 0.033, 0.083, 0.25, 0.5, 1, 1.5, 2, 3, 4, 6, 9, 12, 24 and 30 h in heparinized Eppendorf tubes. The resulting samples were centrifuged at 13,800× g at 4 °C for 5 min to obtain plasma. All plasma samples were stored at −70 °C until analysis.
Biological samples were prepared as previously described.
Non-compartmental analysis with Phenix WinNonlin (version 8.1; Pharsight, Certara Corp, Princeton, NJ) was used to calculate the main pharmacokinetic parameters of ETV, Y101, M8 and M9 for individual rats. The observed values were reported for maximum concentration (Cmax) and time to reach maximum concentration (Tmax), while the area under the plasma concentration–time curve (AUC) was calculated via the default trapezoidal-up, log-trapezoidal-down approach.

[2] = i.v. Y101 25 mg/kg + ETV 0.06 mg/kg

Row | AUC(0-inf) [1, 2] [ng·h/mL] | AUC(0-t) [1, 2] [ng·h/mL] | half-life [1, 2] [min] | Structure (SMILES) | inhibition of the uptake of ETV in hOAT3-HEK293 cells (hOAT3; ETV 10 µM) | substrate of hOAT3 (uptake in hOAT3-HEK293 vs mock-HEK293 cells) (hOAT3) | C0 [1, 2] [ng/mL] | AUC(0-inf) ([1]; i.v. Y101 25 mg/kg alone) [ng·h/mL] | AUC(0-t) ([1]; i.v. Y101 25 mg/kg alone) [ng·h/mL] | Vd [1, 2] [L/kg] | clearance [1, 2] [mL/min/kg] | half-life ([1]; i.v. Y101 25 mg/kg alone) [min] | also measured
1 | 6.76 | 6.31 | 76.8 | C=C1[C@H](CO)[C@@H](O)C[C@@H]1n1cnc2c(=O)[nH]c(N)nc21 [ETV, entecavir] |  |  | 19.1 |  |  | 16.4 | 152 |  | inhibition of the uptake of M8 in hOAT3-HEK293 cells (hOAT3; PRO 100 µM, ETV 10 µM): inhibited the uptake of M8; AUC(0-inf) ([1]; i.v. ETV 0.06 mg/kg alone): 9.79 ng·h/mL; AUC(0-t) ([1]; i.v. ETV 0.06 mg/kg alone): 9.21 ng·h/mL; C0 ([1]; i.v. ETV 0.06 mg/kg alone): 26.4 ng/mL; Vd ([1]; i.v. ETV 0.06 mg/kg alone): 11.7 L/kg; half-life ([1]; i.v. ETV 0.06 mg/kg alone): 76.8 min; clearance ([1]; i.v. ETV 0.06 mg/kg alone): 107 mL/min/kg
2 | 6150 | 6100 | 159 | CN(C)CCOc1ccc(CC(NC(=O)c2ccccc2)C(=O)O)cc1 (stereo not drawn) [M8] | not inhibited | substrate of hOAT3 |  | 5860 | 5830 |  |  | 116 | Cmax [1, 2]: 2520 ng/mL; Cmax ([1]; i.v. Y101 25 mg/kg alone): 2660 ng/mL; Tmax [1, 2]: 26.3 min; Tmax ([1]; i.v. Y101 25 mg/kg alone): 30 min

Row | Structure (SMILES) | AUC(0-inf) [1, 2] [ng·h/mL] | AUC(0-t) [1, 2] [ng·h/mL] | half-life [1, 2] [min] | inhibition of the uptake of ETV in hOAT3-HEK293 cells (hOAT3; ETV 10 µM) | substrate of hOAT3 (uptake in hOAT3-HEK293 vs mock-HEK293 cells) (hOAT3) | C0 [1, 2] [ng/mL] | AUC(0-inf) ([1]; i.v. Y101 25 mg/kg alone) [ng·h/mL] | AUC(0-t) ([1]; i.v. Y101 25 mg/kg alone) [ng·h/mL] | Vd [1, 2] [L/kg] | clearance [1, 2] [mL/min/kg] | half-life ([1]; i.v. Y101 25 mg/kg alone) [min] | also measured
3 | CN(C)CCOc1ccc(C[C@H](NC(=O)c2ccccc2)C(=O)N[C@H](CO)Cc2ccccc2)cc1.Cl [Y101, N-[N-benzoyl-O-(2-dimethylaminoethyl)-l-tyrosyl]-l-phenylalaninol hydrochloride] | 1690 | 1670 | 39.6 | not inhibited | not a substrate of hOAT1 or hOAT3 | 6280 | 2370 | 2350 | 15.5 | 258 | 40.9 | C0 ([1]; i.v. Y101 25 mg/kg alone): 10600 ng/mL; Vd ([1]; i.v. Y101 25 mg/kg alone): 10.6 L/kg; clearance ([1]; i.v. Y101 25 mg/kg alone): 178 mL/min/kg
